In ChEMBL document CHEMBL5579830, “Design and synthesis of 6-C-alkyl-DMDP type nanomolar inhibitors of β-galactosidase and β-glucosidase based on broussonetine S and related derivatives” (Eur J Med Chem, 2024):

How the values were obtained:
[1] = biological target: T1, Alpha-mannosidase (Canavalia ensiformis) (UniProt C0HJB3); assay: Inhibition of jack bean alpha-mannosidase using p-nitrophenyl glycoside as substrate assessed as release of p-nitrophenol at 1000 uM by spectrometric analysis relative to control
T1 sequence (whole entry): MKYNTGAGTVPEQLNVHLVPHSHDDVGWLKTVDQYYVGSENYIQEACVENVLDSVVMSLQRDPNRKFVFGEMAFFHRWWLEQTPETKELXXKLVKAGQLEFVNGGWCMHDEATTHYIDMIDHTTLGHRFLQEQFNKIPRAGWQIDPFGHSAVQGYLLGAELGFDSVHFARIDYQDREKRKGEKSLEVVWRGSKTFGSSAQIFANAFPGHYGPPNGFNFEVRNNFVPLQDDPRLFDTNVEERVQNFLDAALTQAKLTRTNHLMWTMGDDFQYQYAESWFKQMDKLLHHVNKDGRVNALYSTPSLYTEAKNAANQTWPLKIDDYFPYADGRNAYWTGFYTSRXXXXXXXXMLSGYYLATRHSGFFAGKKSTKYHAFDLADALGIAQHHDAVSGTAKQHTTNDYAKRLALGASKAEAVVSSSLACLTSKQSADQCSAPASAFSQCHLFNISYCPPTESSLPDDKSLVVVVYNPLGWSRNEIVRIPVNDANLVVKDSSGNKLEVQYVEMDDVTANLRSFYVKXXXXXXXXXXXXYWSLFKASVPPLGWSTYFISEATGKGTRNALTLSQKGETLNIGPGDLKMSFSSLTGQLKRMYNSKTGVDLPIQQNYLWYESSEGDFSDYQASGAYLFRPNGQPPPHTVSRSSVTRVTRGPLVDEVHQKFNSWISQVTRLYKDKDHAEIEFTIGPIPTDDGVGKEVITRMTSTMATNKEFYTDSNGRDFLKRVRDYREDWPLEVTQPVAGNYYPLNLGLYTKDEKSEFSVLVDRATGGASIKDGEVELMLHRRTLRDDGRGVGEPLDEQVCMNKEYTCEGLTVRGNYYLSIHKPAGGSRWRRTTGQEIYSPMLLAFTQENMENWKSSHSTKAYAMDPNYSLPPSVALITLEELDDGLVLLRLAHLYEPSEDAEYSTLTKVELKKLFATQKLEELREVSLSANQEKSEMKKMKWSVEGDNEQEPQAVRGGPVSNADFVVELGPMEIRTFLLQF

[2] = Inhibition of almond beta-glucosidase using p-nitrophenyl glycoside as substrate assessed as release of p-nitrophenol by spectrometric analysis; design: species or system Prunus dulcis
[3] = biological target: Alpha-galactosidase (Coffea arabica) (UniProt Q42656); assay: Inhibition of coffee bean alpha-galactosidase using p-nitrophenyl glycoside as substrate assessed as release of p-nitrophenol at 1000 uM by spectrometric analysis relative to control
Chain of Alpha-galactosidase (Coffea arabica) (Q42656 16-378 limits assumed): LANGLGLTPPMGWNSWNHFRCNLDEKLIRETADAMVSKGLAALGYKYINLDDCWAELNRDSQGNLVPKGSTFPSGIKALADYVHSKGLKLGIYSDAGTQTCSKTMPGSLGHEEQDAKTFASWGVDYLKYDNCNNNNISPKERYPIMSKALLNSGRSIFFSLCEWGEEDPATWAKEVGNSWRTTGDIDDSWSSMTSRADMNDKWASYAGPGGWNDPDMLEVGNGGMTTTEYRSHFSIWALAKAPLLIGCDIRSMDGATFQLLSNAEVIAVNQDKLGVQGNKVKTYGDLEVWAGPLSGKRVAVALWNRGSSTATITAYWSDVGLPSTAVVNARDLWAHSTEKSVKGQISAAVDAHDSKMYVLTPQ

[4] = Inhibition of bovine liver beta-galactosidase using p-nitrophenyl glycoside as substrate assessed as release of p-nitrophenol by spectrometric analysis; design: species or system Bos taurus
[5] = biological target: Alpha-glucosidase (Saccharomyces cerevisiae S288c, UniProt P53341+P38158+P07265); assay: Inhibition of yeast alpha-glucosidase using p-nitrophenyl glycoside as substrate assessed as release of p-nitrophenol by spectrometric analysis; type: protein assay
[6] = biological target: T2, Tissue alpha-L-fucosidase (Bos taurus) (UniProt Q2KIM0); assay: Inhibition of bovine kidney alpha-L-fucosidase using p-nitrophenyl glycoside as substrate assessed as release of p-nitrophenol at 1000 uM by spectrometric analysis relative to control
T2 sequence (whole entry): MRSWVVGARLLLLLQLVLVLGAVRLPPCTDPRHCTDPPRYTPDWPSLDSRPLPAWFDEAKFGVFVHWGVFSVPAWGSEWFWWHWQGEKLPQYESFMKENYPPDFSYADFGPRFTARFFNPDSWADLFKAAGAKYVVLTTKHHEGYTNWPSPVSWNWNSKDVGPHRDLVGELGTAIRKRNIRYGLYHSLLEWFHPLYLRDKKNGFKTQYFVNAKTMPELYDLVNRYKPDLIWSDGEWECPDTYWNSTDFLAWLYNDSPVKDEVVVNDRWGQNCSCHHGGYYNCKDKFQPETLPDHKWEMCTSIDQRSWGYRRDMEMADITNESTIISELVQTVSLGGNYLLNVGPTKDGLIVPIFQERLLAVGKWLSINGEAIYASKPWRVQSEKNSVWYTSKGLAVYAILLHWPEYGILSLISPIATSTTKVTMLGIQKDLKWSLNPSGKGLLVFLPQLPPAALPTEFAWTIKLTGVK

[7] = Inhibition of rice alpha-glucosidase using p-nitrophenyl glycoside as substrate assessed as release of p-nitrophenol by spectrometric analysis; design: species or system Oryza sativa
[8] = Inhibition of Escherichia coli beta-glucuronidase using p-nitrophenyl glycoside as substrate assessed as release of p-nitrophenol by spectrometric analysis
[9] = Inhibition of Aspergillus niger amyloglucosidase using p-nitrophenyl glycoside as substrate assessed as release of p-nitrophenol by spectrometric analysis
[10] = biological target: T3, Lysosomal acid glucosylceramidase (Homo sapiens, UniProt P04062); assay: Inhibition of human lysosome beta-glucosidase using p-nitrophenyl glycoside as substrate assessed as release of p-nitrophenol by spectrometric analysis
T3 sequence (P04062 whole entry): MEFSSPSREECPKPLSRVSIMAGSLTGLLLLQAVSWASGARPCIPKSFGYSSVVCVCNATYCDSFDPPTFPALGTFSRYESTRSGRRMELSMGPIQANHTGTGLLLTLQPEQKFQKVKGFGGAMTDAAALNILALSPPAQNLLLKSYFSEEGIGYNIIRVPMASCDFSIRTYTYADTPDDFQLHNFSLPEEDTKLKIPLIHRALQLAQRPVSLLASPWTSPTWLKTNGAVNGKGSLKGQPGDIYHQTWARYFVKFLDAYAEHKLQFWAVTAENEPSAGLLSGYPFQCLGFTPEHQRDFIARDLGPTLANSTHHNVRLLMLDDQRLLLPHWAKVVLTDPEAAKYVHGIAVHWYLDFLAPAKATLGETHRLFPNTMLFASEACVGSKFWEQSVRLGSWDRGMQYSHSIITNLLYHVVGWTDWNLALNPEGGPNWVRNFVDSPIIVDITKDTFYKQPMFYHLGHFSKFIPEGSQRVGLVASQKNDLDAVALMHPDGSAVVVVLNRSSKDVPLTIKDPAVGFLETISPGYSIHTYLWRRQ

[11] = tested on: MKN-45; assay: cells; details: Homo sapiens, MKN-45, 48 h
[12] = Inhibition of snail beta-mannosidase using p-nitrophenyl glycoside as substrate assessed as release of p-nitrophenol by spectrometric analysis; design: species or system Helix pomatia
[13] = biological target: T4, Glucosylceramidase (Bos taurus) (UniProt Q2KHZ8); assay: Inhibition of bovine liver beta-glucosidase using p-nitrophenyl glycoside as substrate assessed as release of p-nitrophenol at 1000 uM by spectrometric analysis relative to control
T4 sequence (whole entry): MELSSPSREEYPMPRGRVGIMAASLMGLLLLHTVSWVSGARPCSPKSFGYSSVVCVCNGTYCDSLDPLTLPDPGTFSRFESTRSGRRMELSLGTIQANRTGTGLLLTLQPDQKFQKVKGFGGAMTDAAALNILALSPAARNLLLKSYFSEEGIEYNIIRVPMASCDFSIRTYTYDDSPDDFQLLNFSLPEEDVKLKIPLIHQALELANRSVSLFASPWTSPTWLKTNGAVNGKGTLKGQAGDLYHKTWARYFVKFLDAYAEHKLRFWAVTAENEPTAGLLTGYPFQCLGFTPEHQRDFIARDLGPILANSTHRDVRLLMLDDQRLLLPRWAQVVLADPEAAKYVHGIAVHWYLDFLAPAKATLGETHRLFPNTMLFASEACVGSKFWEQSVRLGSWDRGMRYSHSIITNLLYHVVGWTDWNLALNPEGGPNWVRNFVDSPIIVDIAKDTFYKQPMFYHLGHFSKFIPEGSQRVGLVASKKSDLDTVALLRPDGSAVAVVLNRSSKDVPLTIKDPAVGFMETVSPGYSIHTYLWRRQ

[14] = biological target: Lysosomal alpha-glucosidase (Homo sapiens, UniProt P10253); assay: Inhibition of human lysosome alpha-glucosidase using p-nitrophenyl glycoside as substrate assessed as release of p-nitrophenol by spectrometric analysis

Row | Compound | inhibition [1] [%] | IC50 [2] [µM] | inhibition [3] [%] | IC50 [4] [µM] | inhibition [6] [%] | IC50 [8] [µM] | other results
1 | CCCCCCCC[C@@H](O)[C@H]1N[C@H](CO)[C@@H](O)[C@@H]1O.Cl | – | – | – | – | – | – | IC50 [5]: 28 µM
2 | OCCC[C@H](O)CCCCCCCC[C@H](O)[C@@H]1N[C@@H](CO)[C@H](O)[C@H]1O | 0 | – | 4.9 | 5.1 | 5.9 | 29 | IC50 [7]: 7.3 µM
3 | CC(=O)O[C@H]1C(=O)[C@@]2(C)[C@H]([C@H](OC(=O)c3ccccc3)[C@]3(O)C[C@H](OC(=O)[C@H](O)[C@@H](NC(=O)c4ccccc4)c4ccccc4)C(C)=C1C3(C)C)[C@]1(OC(C)=O)CO[C@@H]1C[C@@H]2O [PACLITAXEL] | – | – | – | – | – | – | EC50 [11]: 0.003 µM
4 | OCCC[C@H](O)CCCCCCCC[C@@H](O)[C@@H]1N[C@@H](CO)[C@H](O)[C@H]1O | 0 | – | 4.11 | 3.9 | 1.1 | 35 | –
5 | OCCC[C@@H](O)CCCCCCCCC[C@H]1N[C@H](CO)[C@@H](O)[C@@H]1O | 2.5 | – | 0 | 2.3 | 0 | 86 | –
6 | OCCC[C@@H](O)CCCCCCCC[C@H](O)[C@@H]1N[C@@H](CO)[C@H](O)[C@H]1O | 2.2 | 92 | 4.8 | 0.74 | 4.3 | 56 | IC50 [7]: 11 µM
7 | CCCCCCCCC[C@@H](O)[C@H]1N[C@H](CO)[C@@H](O)[C@@H]1O.Cl | – | – | – | – | – | – | IC50 [5]: 21 µM
8 | Cl.OCCC[C@@H](O)CCCCCCCC[C@@H](O)[C@@H]1N[C@@H](CO)[C@H](O)[C@H]1O | 0 | – | 4.1 | 2.3 | 8.6 | 46 | IC50 [5]: 49 µM
9 | CCCCCCCC[C@H](O)[C@H]1N[C@H](CO)[C@@H](O)[C@@H]1O.Cl | – | – | – | – | – | – | IC50 [5]: 101 µM
10 | CCCCCCCCC[C@H](O)[C@H]1N[C@H](CO)[C@@H](O)[C@@H]1O.Cl | – | – | – | – | – | – | IC50 [5]: 53 µM
11 | CCCCCCC[C@H](O)[C@H]1N[C@H](CO)[C@@H](O)[C@@H]1O | 0.2 | 0.54 | 0 | 0.39 | – | – | –
12 | OCCC[C@H](O)CCCCCCCCC[C@@H]1N[C@@H](CO)[C@H](O)[C@H]1O | 2.2 | – | 0.3 | 50 | 0 | – | IC50 [7]: 1.2 µM; inhibition [13]: 46.5%
13 | CCCCCCC[C@@H](O)[C@@H]1N[C@@H](CO)[C@H](O)[C@H]1O | 0 | – | 0 | 29 | – | – | –
14 | CCCCCCC[C@H](O)[C@@H]1N[C@@H](CO)[C@H](O)[C@H]1O | 2.6 | – | 0 | 41 | – | – | IC50 [14]: 2.1 µM; IC50 [7]: 6 µM

Further compounds by falling IC50 [4], results first:

Row | inhibition [1] [%] | IC50 [2] [µM] | inhibition [3] [%] | IC50 [4] [µM] | inhibition [6] [%] | IC50 [8] [µM] | Compound | other results
15 | 2.1 | 0.64 | 0 | 0.36 | – | – | CCCCCC[C@H](O)[C@H]1N[C@H](CO)[C@@H](O)[C@@H]1O | –
16 | 0 | 2.8 | 4.7 | 0.062 | 6 | 2.9 | OCCC[C@H](O)CCCCCCCC[C@H](O)[C@H]1N[C@H](CO)[C@@H](O)[C@@H]1O | –
17 | 2.1 | 0.2 | 0 | 0.05 | – | – | CCCCCC[C@@H](O)[C@H]1N[C@H](CO)[C@@H](O)[C@@H]1O | IC50 [9]: 92 µM; IC50 [10]: 73 µM
18 | 0 | 1.8 | 4.6 | 0.046 | 0.43 | 2.5 | OCCC[C@@H](O)CCCCCCCC[C@H](O)C1N[C@H](CO)[C@@H](O)[C@@H]1O (single isomer, unassigned) | –
19 | 1.7 | 0.12 | 0 | 0.015 | – | – | CCCCCCC[C@@H](O)[C@H]1N[C@H](CO)[C@@H](O)[C@@H]1O | IC50 [9]: 91 µM; IC50 [12]: 96 µM; IC50 [10]: 14 µM
20 | 0 | 0.69 | 4.5 | 0.007 | 0.86 | 2.7 | OCCC[C@H](O)CCCCCCCC[C@@H](O)[C@H]1N[C@H](CO)[C@@H](O)[C@@H]1O | IC50 [9]: 73 µM; IC50 [12]: 71 µM
21 | 0 | 0.53 | 4.4 | 0.005 | 6.5 | 3.3 | OCCC[C@@H](O)CCCCCCCC[C@@H](O)[C@H]1N[C@H](CO)[C@@H](O)[C@@H]1O | IC50 [9]: 62 µM; IC50 [12]: 62 µM
